Experimental data as given in ChEMBL document CHEMBL5303766, “Data for DCP probe FHT-2344” (2022).

Legend:
[1] = target: T1, Ephrin type-B receptor 1 (Homo sapiens) (UniProt P54762); test: EPHB1 SGC Tm panel (DSF); settings: for ΔTm: Compound concentration 10.0 uM
T1 sequence (whole entry): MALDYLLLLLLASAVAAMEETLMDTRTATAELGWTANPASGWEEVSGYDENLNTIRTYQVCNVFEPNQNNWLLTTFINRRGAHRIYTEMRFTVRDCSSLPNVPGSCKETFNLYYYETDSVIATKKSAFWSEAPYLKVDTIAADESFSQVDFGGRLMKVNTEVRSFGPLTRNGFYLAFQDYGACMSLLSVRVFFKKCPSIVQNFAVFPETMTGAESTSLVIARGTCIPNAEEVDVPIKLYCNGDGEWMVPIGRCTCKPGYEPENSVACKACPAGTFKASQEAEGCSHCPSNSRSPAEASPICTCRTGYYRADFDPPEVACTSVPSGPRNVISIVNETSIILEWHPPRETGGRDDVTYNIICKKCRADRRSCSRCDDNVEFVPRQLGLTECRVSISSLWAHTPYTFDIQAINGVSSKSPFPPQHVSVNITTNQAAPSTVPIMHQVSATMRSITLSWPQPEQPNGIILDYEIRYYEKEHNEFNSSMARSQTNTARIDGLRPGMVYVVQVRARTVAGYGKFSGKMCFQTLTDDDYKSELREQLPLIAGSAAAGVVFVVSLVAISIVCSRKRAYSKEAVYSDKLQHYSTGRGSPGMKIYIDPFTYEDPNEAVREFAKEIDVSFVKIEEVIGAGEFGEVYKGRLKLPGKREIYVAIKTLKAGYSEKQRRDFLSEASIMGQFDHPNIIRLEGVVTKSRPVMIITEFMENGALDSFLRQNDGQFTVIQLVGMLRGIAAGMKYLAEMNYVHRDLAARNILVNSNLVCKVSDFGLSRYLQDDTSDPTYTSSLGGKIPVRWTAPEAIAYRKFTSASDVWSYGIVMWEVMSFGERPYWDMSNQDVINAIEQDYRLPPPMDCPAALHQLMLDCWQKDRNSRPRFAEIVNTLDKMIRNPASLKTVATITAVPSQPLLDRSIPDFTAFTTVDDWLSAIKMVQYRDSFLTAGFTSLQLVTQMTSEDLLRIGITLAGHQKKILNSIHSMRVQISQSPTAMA

[2] = target: Cyclin-dependent kinase-like 1 (Homo sapiens) (UniProt Q00532); test: CDKL1 SGC Tm panel (DSF); settings: for ΔTm: Compound concentration 10.0 uM
Chain of Cyclin-dependent kinase-like 1 (Homo sapiens) (Q00532 whole entry): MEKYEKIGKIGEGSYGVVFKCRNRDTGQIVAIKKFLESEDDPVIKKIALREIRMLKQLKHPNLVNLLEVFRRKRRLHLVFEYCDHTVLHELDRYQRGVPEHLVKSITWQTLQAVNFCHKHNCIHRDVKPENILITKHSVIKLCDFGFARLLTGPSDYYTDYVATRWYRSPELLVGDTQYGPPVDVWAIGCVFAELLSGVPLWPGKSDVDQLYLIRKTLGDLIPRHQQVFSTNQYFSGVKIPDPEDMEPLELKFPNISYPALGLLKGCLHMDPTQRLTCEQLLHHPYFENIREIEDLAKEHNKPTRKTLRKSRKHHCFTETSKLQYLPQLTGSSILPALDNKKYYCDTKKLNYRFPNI

[3] = target: Homeodomain-interacting protein kinase 2 (Homo sapiens) (UniProt Q9H2X6); test: HIPK2 SGC Tm panel (DSF); settings: for ΔTm: Compound concentration 10.0 uM
Chain of Homeodomain-interacting protein kinase 2 (Homo sapiens) (Q9H2X6 whole entry, looked up): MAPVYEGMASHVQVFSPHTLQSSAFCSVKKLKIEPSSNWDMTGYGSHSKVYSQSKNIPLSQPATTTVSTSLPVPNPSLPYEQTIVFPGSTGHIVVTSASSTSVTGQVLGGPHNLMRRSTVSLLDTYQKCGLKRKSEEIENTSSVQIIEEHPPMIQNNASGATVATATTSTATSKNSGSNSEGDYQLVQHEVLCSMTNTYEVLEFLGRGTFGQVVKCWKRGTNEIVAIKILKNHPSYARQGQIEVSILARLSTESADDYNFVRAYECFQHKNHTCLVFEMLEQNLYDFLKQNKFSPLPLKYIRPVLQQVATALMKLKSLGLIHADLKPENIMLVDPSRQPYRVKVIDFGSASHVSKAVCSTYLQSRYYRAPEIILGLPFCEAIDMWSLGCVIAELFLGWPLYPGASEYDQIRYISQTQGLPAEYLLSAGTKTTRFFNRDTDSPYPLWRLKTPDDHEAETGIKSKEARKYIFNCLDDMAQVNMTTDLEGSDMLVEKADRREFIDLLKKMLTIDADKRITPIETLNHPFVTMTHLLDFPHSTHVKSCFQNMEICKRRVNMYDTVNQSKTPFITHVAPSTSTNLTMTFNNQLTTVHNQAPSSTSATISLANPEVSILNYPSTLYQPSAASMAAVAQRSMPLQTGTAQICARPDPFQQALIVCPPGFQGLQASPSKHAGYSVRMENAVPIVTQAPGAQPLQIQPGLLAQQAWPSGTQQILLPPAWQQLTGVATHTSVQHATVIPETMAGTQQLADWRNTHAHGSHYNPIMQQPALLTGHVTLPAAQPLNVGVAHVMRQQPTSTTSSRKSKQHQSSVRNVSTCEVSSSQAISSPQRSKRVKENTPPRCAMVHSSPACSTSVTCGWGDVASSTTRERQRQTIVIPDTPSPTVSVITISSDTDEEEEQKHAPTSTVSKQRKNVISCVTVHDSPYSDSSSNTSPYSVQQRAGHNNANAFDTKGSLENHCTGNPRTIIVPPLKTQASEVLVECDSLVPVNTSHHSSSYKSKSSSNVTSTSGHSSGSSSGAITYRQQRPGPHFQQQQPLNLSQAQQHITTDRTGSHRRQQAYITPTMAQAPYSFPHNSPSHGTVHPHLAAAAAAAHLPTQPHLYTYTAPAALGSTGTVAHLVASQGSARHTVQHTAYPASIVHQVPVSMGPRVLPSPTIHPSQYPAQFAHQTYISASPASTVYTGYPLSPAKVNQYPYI

[4] = target: Alpha-2C adrenergic receptor (Homo sapiens) (UniProt P18825); settings: Compound concentration 10.0 uM
Chain of Alpha-2C adrenergic receptor (Homo sapiens) (P18825 whole entry): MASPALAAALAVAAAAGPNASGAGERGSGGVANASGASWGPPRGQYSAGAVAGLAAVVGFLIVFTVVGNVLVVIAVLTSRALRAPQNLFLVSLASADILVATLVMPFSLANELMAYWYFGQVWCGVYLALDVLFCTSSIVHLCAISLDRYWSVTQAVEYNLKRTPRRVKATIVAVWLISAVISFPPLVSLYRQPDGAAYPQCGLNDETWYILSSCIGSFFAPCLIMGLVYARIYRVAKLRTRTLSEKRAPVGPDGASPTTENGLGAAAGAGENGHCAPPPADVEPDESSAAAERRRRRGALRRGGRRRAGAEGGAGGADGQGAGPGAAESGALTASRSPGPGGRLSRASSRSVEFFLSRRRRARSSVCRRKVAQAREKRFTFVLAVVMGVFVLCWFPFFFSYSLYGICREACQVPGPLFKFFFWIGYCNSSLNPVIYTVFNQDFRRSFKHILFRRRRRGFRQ

[5] = target: Histamine H3 receptor (Homo sapiens) (UniProt Q9Y5N1); settings: Compound concentration 10.0 uM
[6] = target: Histamine H4 receptor (Homo sapiens) (UniProt Q9H3N8); settings: Compound concentration 10.0 uM
[7] = target: T2, Cyclin-G-associated kinase (Homo sapiens) (UniProt O14976); test: GAK SGC Tm panel (DSF); settings: for ΔTm: Compound concentration 10.0 uM
T2 sequence (whole entry): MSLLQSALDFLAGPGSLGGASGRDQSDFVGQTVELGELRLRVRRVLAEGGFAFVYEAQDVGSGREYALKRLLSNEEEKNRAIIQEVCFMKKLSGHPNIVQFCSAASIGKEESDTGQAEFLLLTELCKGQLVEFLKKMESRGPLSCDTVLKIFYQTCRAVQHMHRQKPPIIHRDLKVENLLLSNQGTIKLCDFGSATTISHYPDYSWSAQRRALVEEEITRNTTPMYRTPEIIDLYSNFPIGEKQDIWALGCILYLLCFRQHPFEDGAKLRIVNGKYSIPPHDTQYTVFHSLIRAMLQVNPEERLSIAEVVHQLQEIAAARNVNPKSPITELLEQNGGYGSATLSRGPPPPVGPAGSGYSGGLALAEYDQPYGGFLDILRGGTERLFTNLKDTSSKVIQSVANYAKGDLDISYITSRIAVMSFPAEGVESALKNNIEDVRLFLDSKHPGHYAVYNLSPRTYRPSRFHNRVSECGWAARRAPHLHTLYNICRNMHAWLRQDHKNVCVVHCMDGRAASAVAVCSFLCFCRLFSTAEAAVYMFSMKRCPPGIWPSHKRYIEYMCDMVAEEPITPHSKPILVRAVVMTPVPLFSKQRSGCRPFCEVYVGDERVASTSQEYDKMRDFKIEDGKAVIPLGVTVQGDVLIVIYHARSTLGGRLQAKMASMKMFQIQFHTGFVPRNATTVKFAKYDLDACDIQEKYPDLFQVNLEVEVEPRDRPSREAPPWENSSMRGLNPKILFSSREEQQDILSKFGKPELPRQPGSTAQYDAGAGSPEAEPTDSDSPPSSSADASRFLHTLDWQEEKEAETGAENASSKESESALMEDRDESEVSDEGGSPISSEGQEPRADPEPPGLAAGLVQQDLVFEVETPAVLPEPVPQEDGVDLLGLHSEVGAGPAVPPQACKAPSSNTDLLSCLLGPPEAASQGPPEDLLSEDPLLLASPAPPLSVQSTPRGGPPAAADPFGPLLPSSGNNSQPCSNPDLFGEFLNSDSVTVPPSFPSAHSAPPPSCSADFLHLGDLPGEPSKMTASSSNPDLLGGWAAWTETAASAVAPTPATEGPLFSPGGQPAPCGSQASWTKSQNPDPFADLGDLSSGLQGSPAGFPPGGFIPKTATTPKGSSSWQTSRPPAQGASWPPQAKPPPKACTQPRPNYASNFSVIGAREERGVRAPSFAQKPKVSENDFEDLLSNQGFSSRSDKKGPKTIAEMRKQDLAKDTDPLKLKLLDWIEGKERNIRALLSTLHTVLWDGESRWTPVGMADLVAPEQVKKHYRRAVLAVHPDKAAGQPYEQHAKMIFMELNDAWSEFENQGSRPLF

[8] = target: Serine/threonine-protein kinase 38-like (Homo sapiens) (UniProt Q9Y2H1); test: STK38L SGC Tm panel (DSF); settings: for ΔTm: Compound concentration 10.0 uM
Chain of Serine/threonine-protein kinase 38-like (Homo sapiens) (Q9Y2H1 2-464 limits assumed): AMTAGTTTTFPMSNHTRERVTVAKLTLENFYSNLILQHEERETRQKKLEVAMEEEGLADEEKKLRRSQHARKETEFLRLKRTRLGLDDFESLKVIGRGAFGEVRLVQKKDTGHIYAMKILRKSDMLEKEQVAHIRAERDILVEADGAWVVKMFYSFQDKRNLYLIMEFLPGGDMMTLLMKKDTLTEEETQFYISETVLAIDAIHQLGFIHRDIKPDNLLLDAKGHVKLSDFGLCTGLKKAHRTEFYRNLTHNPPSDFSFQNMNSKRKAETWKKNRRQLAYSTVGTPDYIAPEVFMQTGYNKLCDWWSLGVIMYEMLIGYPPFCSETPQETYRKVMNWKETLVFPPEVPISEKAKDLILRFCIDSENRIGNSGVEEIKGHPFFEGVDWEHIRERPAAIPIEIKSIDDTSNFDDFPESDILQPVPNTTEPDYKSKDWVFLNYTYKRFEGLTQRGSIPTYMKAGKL

[9] = target: Serine/threonine-protein kinase 26 (Homo sapiens) (UniProt Q9P289); test: MST4 SGC Tm panel (DSF); settings: for ΔTm: Compound concentration 10.0 uM
Chain of Serine/threonine-protein kinase 26 (Homo sapiens) (Q9P289 2-416 limits assumed): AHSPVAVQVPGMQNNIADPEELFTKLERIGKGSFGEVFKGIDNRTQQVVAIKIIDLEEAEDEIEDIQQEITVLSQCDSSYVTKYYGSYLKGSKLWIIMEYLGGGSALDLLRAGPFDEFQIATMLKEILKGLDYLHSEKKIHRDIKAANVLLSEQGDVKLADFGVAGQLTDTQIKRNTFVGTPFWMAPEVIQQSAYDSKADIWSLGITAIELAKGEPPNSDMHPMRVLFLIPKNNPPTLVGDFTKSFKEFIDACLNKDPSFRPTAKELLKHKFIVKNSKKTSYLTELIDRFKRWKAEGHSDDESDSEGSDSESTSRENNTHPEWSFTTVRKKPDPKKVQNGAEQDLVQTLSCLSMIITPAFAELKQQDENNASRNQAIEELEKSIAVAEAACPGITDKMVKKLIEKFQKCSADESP

[10] = target: Muscarinic acetylcholine receptor M4 (Homo sapiens) (UniProt P08173); settings: Compound concentration 10.0 uM
Chain of Muscarinic acetylcholine receptor M4 (Homo sapiens) (P08173 whole entry): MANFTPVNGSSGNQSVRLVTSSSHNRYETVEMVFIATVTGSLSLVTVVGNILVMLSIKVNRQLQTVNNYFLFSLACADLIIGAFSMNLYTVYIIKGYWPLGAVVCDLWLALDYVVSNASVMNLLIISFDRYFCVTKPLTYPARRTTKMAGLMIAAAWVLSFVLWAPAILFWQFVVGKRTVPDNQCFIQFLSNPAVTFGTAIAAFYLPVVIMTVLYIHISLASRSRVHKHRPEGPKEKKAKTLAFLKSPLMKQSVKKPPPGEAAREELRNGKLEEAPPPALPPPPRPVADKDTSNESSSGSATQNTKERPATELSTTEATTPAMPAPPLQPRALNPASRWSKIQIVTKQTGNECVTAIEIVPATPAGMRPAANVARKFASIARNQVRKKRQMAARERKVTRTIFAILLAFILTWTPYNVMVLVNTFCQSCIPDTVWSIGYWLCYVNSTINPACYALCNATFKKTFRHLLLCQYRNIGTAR

[11] = target: Serine/threonine-protein kinase B-raf (Homo sapiens) (UniProt P15056); test: BRAF SGC Tm panel (DSF); settings: for ΔTm: Compound concentration 10.0 uM
Chain of Serine/threonine-protein kinase B-raf (Homo sapiens) (P15056 whole entry): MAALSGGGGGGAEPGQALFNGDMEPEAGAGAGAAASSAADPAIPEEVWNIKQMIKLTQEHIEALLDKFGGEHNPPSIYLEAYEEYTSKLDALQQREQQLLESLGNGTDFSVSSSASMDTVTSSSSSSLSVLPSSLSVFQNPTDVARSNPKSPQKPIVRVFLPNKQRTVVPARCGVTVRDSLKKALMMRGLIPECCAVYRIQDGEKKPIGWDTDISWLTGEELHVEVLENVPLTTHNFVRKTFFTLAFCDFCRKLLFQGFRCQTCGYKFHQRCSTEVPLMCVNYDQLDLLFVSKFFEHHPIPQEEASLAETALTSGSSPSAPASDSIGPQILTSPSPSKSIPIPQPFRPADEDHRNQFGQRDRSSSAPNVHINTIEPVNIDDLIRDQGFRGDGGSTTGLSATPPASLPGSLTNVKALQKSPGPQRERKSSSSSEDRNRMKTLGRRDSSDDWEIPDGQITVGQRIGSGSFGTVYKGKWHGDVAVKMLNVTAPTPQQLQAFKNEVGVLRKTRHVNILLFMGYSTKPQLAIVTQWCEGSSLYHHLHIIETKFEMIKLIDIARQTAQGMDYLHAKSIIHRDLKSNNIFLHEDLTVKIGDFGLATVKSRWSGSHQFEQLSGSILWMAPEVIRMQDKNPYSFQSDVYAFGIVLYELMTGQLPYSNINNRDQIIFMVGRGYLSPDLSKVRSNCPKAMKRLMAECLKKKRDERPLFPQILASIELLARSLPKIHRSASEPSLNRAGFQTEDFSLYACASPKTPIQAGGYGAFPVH

[12] = target: Dual specificity tyrosine-phosphorylation-regulated kinase 1A (Homo sapiens) (UniProt Q13627); test: DYRK1A SGC Tm panel (DSF); settings: for ΔTm: Compound concentration 10.0 uM
[13] = target: Fibroblast growth factor receptor 2 (Homo sapiens) (UniProt P21802); test: FGFR2 SGC Tm panel (DSF); settings: for ΔTm: Compound concentration 10.0 uM
Chain of Fibroblast growth factor receptor 2 (Homo sapiens) (P21802 22-821 limits assumed): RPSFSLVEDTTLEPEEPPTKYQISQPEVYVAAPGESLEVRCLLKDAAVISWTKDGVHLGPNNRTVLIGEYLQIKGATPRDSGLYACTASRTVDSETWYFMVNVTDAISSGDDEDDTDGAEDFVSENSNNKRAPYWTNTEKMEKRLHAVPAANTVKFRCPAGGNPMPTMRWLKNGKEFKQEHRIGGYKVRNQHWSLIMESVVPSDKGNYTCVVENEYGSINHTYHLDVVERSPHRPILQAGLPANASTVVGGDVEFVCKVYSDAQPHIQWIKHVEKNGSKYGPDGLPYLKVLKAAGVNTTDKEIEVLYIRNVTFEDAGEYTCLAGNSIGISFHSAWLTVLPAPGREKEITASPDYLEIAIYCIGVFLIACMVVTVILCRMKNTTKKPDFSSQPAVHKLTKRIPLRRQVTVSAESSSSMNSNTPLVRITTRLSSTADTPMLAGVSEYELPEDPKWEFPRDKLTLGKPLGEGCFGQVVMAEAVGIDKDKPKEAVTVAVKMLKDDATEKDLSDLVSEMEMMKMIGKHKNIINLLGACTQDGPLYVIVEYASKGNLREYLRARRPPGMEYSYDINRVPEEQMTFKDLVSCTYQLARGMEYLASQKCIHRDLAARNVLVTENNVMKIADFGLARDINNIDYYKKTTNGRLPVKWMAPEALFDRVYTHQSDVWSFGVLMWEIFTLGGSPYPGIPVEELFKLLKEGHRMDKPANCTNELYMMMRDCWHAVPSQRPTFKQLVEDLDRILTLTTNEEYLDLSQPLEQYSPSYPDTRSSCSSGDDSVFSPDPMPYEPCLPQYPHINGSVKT

Row | delta Tm Staurosporine positive control [1] | ΔTm [1] | delta Tm Staurosporine positive control [2] | ΔTm [2] | delta Tm Staurosporine positive control [3] | ΔTm [3] | inhibition [4] [%] | inhibition [5] [%] | delta Tm Staurosporine positive control [7] | ΔTm [7] | delta Tm Staurosporine positive control [8] | ΔTm [8] | delta Tm Staurosporine positive control [9] | ΔTm [9] | inhibition [10] [%] | delta Tm Staurosporine positive control [11] | ΔTm [11] | delta Tm Staurosporine positive control [12] | ΔTm [12] | delta Tm Staurosporine positive control [13] | Compound | other results
1 | 6.19 | -0.318 | 5 | 0.194 | 6.38 | 0.234 | 10.2 | 7.45 | 8.71 | -0.217 | 10.8 | 0.451 | 6.93 | -1.14 | 4.13 | 0.63 | -0.0136 | 9.3 | -0.76 | 8.53 | COC[C@H](NC(=O)c1ccn(S(C)(=O)=O)c1)C(=O)Nc1nc(-c2cccc(-c3ccn(C)n3)c2)cs1 | inhibition [6]: -0.33%; ΔTm [13]: 0.294
2 | 6.19 | 0.229 | 5 | 0.189 | 6.38 | 0.207 | 11.2 | 0.34 | 8.71 | -0.0366 | 10.8 | 0.237 | 6.93 | -1.33 | 7.09 | 0.63 | -0.0339 | 9.3 | -0.834 | 8.53 | C[C@H](NC(=O)c1cn(C2(C#N)CC2)cn1)C(=O)Nc1nc(-c2cccc(-c3ccn(C)n3)c2)cs1 | ΔTm [13]: 0.191
